Where “and” joins values, the source holds several entries; their conditions need not be identical. Equal values may be shown once.
Tests used:
CB1 [1] = molecular target: T1, CB1 (Homo sapiens, UniProt P21554); conditions: concentrations less than 30 μM; reported by GSK; cited from earlier work
rat CB2 receptor [2] = molecular target: T2, rat CB2 receptor (Rattus norvegicus, UniProt Q9QZN9); assay: β-arrestin recruitment assay (PathHunter CHO-K1); type: cell-based; design: host or cells: PathHunter CHO-K1; conditions: for β-arrestin efficacy compared to CP55,940, rat CB2: relative to CP55,940
T2 sequence (Q9QZN9 1-360): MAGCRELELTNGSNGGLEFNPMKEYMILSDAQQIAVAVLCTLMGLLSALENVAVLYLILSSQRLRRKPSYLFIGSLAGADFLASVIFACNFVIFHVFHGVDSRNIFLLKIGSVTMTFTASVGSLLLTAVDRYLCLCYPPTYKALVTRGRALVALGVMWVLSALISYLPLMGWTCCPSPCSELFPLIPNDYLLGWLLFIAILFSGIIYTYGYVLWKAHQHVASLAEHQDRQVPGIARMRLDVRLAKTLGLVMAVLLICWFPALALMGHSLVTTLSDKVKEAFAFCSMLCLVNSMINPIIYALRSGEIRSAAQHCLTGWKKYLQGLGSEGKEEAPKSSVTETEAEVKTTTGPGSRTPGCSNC

[3] = system: MIA-induced osteoarthritis in male Sprague Dawley rats; assay: Osteoarthritis pain model (MIA); type: in vivo, rat; conditions: for effect of CB1 antagonist on in vivo efficacy: pain model
Excerpt: Injection of monosodium iodoacetate (MIA) into a joint (J Rheumatol 14:130-1, 1987) inhibits the activity of glyceraldehyde-3-phosphate dehydrogenase in chondrocytes, resulting in disruption of glycolysis and eventually in cell death. The progressive loss of chondrocytes results in histological and morphological changes of the articular cartilage, closely resembling those seen in osteoarthritis patients.
Osteoarthritis was induced in 200 g male Sprague Dawley rats. After brief anesthesia by isoflurane, rats received a single intra-articular injection of MIA (2 mg) (Catalog #19148, Sigma Aldrich, Saint Louis, Mo.) dissolved in 0.9% sterile saline in a 50 μL volume administered through the patella ligament into the joint space of the left knee with a 30 G needle. Following injection, animals were allowed to recover from anesthesia before being returned to the main housing vivarium.
Typically during disease progression, there is an inflammation period of 0-7 days post-intra-articular injection followed by progressive degeneration of the cartilage and subchondral bone from days 14-55. Efficacy studies with a compound described herein took place from day 14 onwards and were performed twice a week with at least three days of wash-out in between each assay. Three different assays can be used to measure pain. Tactile allodynia can be measured via von Frey assay, hind limb paw weight distribution can be monitored using an incapacitance tester (Columbus Instruments, Columbus, Ohio), and hind limb grip strength can be measured using a grip strength meter (Columbus Instruments, Columbus, Ohio). Briefly, the von Frey assay was performed using the standard up/down method with von Frey filaments. Hind paw weight distribution was determined by placing rats in a chamber so that each hind paw rested on a separate force plate of the incapacitance tester. The force exerted by each hind limb (measured in grams) was averaged over a three second period. Three measurements are taken for each rat, and the change in hind paw weight distribution was calculated. Peak hind limb grip force was conducted by recoding the maximum compressive force exerted on the hind limb mesh gauge set on the grip strength meter. During testing, each rat was restrained and the paw of the injected knee was allowed to grip the mesh. The animal was then pulled in an upward motion until their grip was broken. Each rat was tested three times, with the contralateral paw used as a control.
A baseline was established for animals prior to administration of compounds. The MIA-treated groups of rats were then dosed with either vehicle (PEG400, orally), test compound (at 3 mg/kg, 10 mg/kg, and 30 mg/kg, orally), or morphine (3 mg/kg, subcutaneously). The dosing volume was 500 μL. One hour after dosing, von Frey assay, hind limb weight distribution and/or hind limb grip analysis was performed to measure the efficacy of the test compounds.

CB1 [4] = molecular target: T1, CB1; assay: β-arrestin recruitment assay (PathHunter CHO-K1); type: cell-based
hCB2 [5] = molecular target: T3, hCB2 (Homo sapiens, UniProt P34972); assay: β-arrestin recruitment assay (PathHunter CHO-K1); type: cell-based; design: host or cells: PathHunter CHO-K1; conditions: for β-arrestin efficacy compared to CP55,940, human CB2: relative to CP55,940
mouse CB1 receptor = mouse CB1 receptor (Mus musculus, UniProt P47746); assay: β-arrestin recruitment assay (PathHunter CHO-K1); type: cell-based
hCB2 [6] = molecular target: T3, hCB2; assay: CB2 receptor internalization assay (enzyme complementation); type: cell-based; conditions: for receptor internalization, human CB2 (words): relative to CP55,940
Description: (§1) Receptor internalization assays for the CB2 receptor were performed using the PathHunter® Total GPCR Internalization system from DiscoverRx (Fremont, Calif.). The assay was performed in CB2-receptor-expressing stable cell lines generated in the PathHunter® U2OS parental cell line.
(§2) Total GPCR internalization assays were performed per the manufacturer's instructions. Briefly, PathHunter® U2OS cells stably expressing the recombinant human or rat CB2 receptor were seeded into 96-well microtiter assay plates (Catalog #3610, Corning Inc., Corning, N.Y.) at a density of 20,000 cells per well in 100 μL growth medium and cultured in a humidified 37° C. incubator overnight. Growth medium was exchanged the following day for 100 μL serum-free medium (OptiMEM), and cells were incubated overnight in a humidified 37° C. incubator. On the day of the assay, test compounds dissolved in DMSO were serially diluted in DMSO and then further diluted in OptiMEM to achieve 11× concentrations in 5.5% DMSO. Aliquots (10 μL) of diluted test compounds were added to the assay plates, which were then incubated in a humidified 37° C. incubator for 3 hours. Lysis/detection reagents (55 μL total) were then added and the plates were incubated for an additional 1 hour at room temperature. Plates were then read on an appropriate plate reader (e.g., EnVision (Perkin Elmer, Waltham, Mass.) or PheraStar (BMG)). Dose-response curves were generated using a minimum of 8 different test concentrations and triplicate determinations were made at each test concentration. Assay performance was monitored by inclusion of a standard CB2 reference agonist such as CP55,940 and agonist internalization efficacies were reported relative to that of the reference agonist.

mouse CB2 receptor = molecular target: T4, mouse CB2 receptor (Mus musculus, UniProt P47936); assay: β-arrestin recruitment assay (PathHunter CHO-K1); type: cell-based; conditions: for β-arrestin efficacy, mouse CB2: relative to reference agonist
T4 construct: host or cells: PathHunter CHO-K1

rat CB1 receptor = rat CB1 receptor (Rattus norvegicus, UniProt P20272); assay: β-arrestin recruitment assay (PathHunter CHO-K1); type: cell-based
CB1 [7] = molecular target: T1, CB1; conditions: at 100,000 nM; reported by Lilly; cited from earlier work
hCB2 [8] = molecular target: T3, hCB2; conditions: reported by Lilly; cited from earlier work
[9] = system: human CB2 receptor versus human CB1 receptor; assay: CB2 receptor selectivity (ratio of EC50 values, β-arrestin data); type: cell-based
Excerpt: Competition curves were fit to a nonlinear least squares curve fitting program to obtain EC50 values for the β-arrestin data. Selectivity for the CB2 receptor versus the CB1 receptor was obtained by dividing the […].

hCB2 [10] = molecular target: T3, hCB2; conditions: reported by Glenmark, cited from earlier work
rat CB2 receptor [11] = molecular target: T2, rat CB2 receptor; assay: CB2 receptor internalization assay (enzyme complementation); type: cell-based; conditions: relative to CP55,940
Description: as §1, §2

T3 sequence (P34972 whole entry): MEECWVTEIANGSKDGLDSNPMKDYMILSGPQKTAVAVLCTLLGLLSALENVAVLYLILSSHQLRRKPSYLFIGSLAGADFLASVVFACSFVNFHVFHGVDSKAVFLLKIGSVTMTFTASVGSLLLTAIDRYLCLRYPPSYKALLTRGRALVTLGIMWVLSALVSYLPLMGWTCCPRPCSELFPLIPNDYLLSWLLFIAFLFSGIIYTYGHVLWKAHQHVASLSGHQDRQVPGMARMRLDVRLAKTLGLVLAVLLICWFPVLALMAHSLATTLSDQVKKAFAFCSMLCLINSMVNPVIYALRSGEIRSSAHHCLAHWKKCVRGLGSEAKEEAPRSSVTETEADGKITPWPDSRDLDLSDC
T1 sequence (P21554 whole entry): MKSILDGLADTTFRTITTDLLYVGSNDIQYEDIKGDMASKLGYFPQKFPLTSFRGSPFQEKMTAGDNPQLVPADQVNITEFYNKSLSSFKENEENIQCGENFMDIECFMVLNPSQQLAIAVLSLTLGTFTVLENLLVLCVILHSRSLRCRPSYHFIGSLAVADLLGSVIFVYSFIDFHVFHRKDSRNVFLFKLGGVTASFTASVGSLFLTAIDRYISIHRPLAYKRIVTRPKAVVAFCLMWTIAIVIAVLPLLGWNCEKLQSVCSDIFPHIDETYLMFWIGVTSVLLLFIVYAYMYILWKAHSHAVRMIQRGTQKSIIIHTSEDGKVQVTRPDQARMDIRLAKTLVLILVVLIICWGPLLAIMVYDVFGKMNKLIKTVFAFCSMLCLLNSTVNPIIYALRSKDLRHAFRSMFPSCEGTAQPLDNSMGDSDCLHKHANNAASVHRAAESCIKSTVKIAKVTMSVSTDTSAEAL
Sequence of mouse CB1 receptor (P47746 whole entry): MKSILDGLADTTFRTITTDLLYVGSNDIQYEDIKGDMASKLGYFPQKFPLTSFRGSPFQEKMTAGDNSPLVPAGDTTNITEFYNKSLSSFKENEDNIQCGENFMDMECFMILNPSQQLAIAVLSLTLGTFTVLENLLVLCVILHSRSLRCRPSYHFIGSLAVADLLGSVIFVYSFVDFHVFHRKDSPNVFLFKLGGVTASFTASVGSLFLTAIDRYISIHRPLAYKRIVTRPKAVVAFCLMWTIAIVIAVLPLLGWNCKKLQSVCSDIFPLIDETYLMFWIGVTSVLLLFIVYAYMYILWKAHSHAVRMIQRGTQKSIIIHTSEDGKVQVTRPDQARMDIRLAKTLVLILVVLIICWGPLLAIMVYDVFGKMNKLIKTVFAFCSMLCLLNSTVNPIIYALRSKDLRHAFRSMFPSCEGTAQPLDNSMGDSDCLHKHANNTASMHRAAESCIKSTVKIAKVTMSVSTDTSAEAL
T4 sequence (P47936 whole entry): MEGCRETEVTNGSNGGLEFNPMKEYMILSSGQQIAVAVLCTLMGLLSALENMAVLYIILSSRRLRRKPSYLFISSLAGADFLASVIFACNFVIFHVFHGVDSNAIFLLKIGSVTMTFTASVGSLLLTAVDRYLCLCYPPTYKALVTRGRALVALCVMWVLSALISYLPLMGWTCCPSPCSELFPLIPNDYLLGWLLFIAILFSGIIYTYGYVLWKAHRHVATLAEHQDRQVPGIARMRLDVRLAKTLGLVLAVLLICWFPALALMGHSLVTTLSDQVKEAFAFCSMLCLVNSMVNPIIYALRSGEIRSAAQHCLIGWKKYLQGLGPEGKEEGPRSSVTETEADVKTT
Sequence of rat CB1 receptor (P20272 whole entry): as the sequence (P47746 whole entry) above, with D95E counted along it

| Compound | EC50 (rat CB2 receptor [2]) | β-arrestin efficacy compared to CP55,940, rat CB2 (rat CB2 receptor [2]) | EC50 (CB1 [4]) | EC50 (hCB2 [5]) | β-arrestin efficacy compared to CP55,940, human CB2 (hCB2 [5]) | EC50 (mouse CB1 receptor) | receptor internalization, human CB2 (words) (hCB2 [6]) | EC50 (mouse CB2 receptor) | β-arrestin efficacy, mouse CB2 (mouse CB2 receptor) | EC50 (rat CB1 receptor) | also measured |
| --- | --- | --- | --- | --- | --- | --- | --- | --- | --- | --- | --- |
| O=C(NCC1CCOCC1)c1cnc(Nc2ccc(Cl)cc2Cl)nc1C(F)(F)F [GW842166X] | 427 nM | 97% | > 10000 nM | 840 nM | 99% | > 10000 nM | weak receptor internalization | 235 nM | 108% | > 10000 nM | CB1 activity (CB1 [1]): absence of CB1 activity; in vivo efficacy over time in the osteoarthritis pain model ([3]; oral dosing): limited efficacy; effect of CB1 antagonist on in vivo efficacy [3]: blocked by CB1 antagonists; effect of CB1 antagonist on in vivo efficacy ([3]; listed as GW842166): blocked by a CB1 antagonist; total granule intensity compared to CP55,940, human CB2 receptor internalization (hCB2 [6]): 53%; receptor internalization, human CB2 (words) (hCB2 [6]; listed as GW842166): weak CB2 receptor internalization |
| Cc1nc(N2CCN(C)CC2)c2nc(-c3ccccc3Cl)n(C3CCOCC3)c2n1 [LY2828360] | – | – | – | – | 41% | – | – | – | – | – | agonist activity in β-arrestin assay, rat CB2 (rat CB2 receptor [2]; compared to CP55,940): absence of agonist activity; GTPγS35 stimulation efficacy, hCB1 (CB1 [7]): 15 ± 7% at 100,000 nM; IC50 (mouse CB1 receptor; antagonist activity, read-out: β-arrestin potency, mouse CB1 (* indicates antagonist activity)): 1000 nM; GTPγS35 stimulation in vitro efficacy, hCB2 (hCB2 [8]): 87% and 87 ± 2%; IC50 (mouse CB2 receptor; antagonist activity, read-out: β-arrestin potency, mouse CB2 (* indicates antagonist activity)): 56 nM |
| CC(C)(C)NC(=O)c1nn(-c2ccc(F)cc2F)c2c1C1CCC2C1 (stereo not drawn) [GRC 10693] | 2 nM | 89% | 384 nM | 1.2 nM | 100% | 750 nM | high efficacy | 0.8 nM | 96% | 290 nM | β-arrestin efficacy, human CB1 (CB1 [4]; relative to reference agonist): 57%; selectivity for the human CB2 receptor versus the human CB1 receptor [9]: 320 fold; β-arrestin efficacy, mouse CB1 (mouse CB1 receptor; relative to reference agonist): 75%; selectivity compared to the CB1 receptor using cAMP assays (hCB2 [10]): greater than 4700 fold; IC50 (hCB2 [10]; read-out: functional IC50 for the human CB2 receptor): 2.1 nM; receptor internalization, rat CB2 (rat CB2 receptor [11]): high efficacy; β-arrestin efficacy, rat CB1 (rat CB1 receptor; relative to reference agonist): 57% |
